As a reminder, the solubility is the concentration that dissolves in the medium under given conditions. Lower therefore signals a poorly soluble substance. As a reminder, the logD is lipophilicity at a set pH, counting ionised and neutral species. Low values mean lower lipophilicity, high ones higher lipophilicity. The Solubility is how much of the substance goes into solution per volume. A higher Solubility goes with a readily soluble substance.

≈ marks a conversion by molar mass, not a printed value. Marks after values point to notes of the source that are not given here.

The values below come from patent US20230295086A1, “NOVEL PSILOCIN DERIVATIVES HAVING PRODRUG PROPERTIES” (COMPASS […], priority 2020, published 2023).

Data set [1] in a line: Kinetic solubility assay (Example 11). The procedure: Test and control compounds were diluted to 10 mM in DMSO and then further diluted 1 in 50 in 50 mM PB (pH 7.4) to a target concentration of 200 μM. Samples were vortexed for at least 2 minutes and then left to shake (800 rpm) at room temperature for 24 hours. Visual appearance was assessed before centrifugation and injection into a UPLC system to measure concentration. […] Each compound was tested in duplicate.

Data set [2] in a line: Shake flask Log D assay (Example 11). Type of data set: physicochemical. The conditions noted are these: 1-Octanol / 100 mM PB pH 7.4, shake flask, LC-MS/MS; test compound as hydrochloride. The procedure:
Test and control compounds were diluted to 10 mM in DMSO. 2 μl of each stock solution was aliquoted into tubes in duplicate. 1-Octanol saturated phosphate buffer (PB) (pH 7.4) was prepared by adding 1-Octanol into 100 ml of 100 mM PB (7.4). PB saturated 1-Octanol was prepared by adding 10 ml of 100 mM PB (7.4) into 100 ml of 1-Octanol. 149 μl of each solution was aliquoted into the corresponding tubes. These were then mixed vigorously for 2 minutes and shaken (800 rpm) at room temperature for one hour. The appropriate volume of buffer and 1-Octanol layer samples was aliquoted and diluted, before detection using LC-MS/MS.
Log D was calculated according to the following equation: […]

Data set [3] in a line: Kinetic turbidimetric solubility assay. The following applies: 0.01 M PBS pH 7.4, 2% DMSO, room temperature, novel compounds as hemifumarate, psilocybin and psilocin free base; for solubility at 5 min: pH 7.4, aqueous buffer, kinetic from dmso stock. The procedure: Each test compound was diluted to 10 mM in DMSO. From this solution, six further dilutions of each test compound were prepared in DMSO (0.02, 0.1, 0.2, 1, 2, and 5 mM). […] Three replicate wells were designated per concentration. Following the dilutions in buffer, plates were incubated at room temperature shaking for 5 minutes before the absorbance was measured at 620 nm using a Molecular Devices SpectraMax384 UV detector. Nicardipine was tested as a control compound.
Solubility was estimated from the concentration of test compound that produced an increase in absorbance above a threshold of 0.005 absorbance units and was normalized to the DMSO blank.

The nature of the next data set: Micro shake flask Log D. The following applies: for Mean LogD: Octanol:PBS 1:9, pH 7.4, 10 μM, six replicates, novel compounds as hemifumarate; for logD at 2 h: pH 7.4. On the procedure: 6 replicates of each test compound were incubated at 10 μM in a 1:9 ratio of Octanol: PBS at pH 7.4. Following a two hour incubation at room temperature shaking at 600 rpm, the incubation plate was centrifuged for 15 minutes to separate the layers and then two aliquots were removed from the PBS layer. The first was left neat and the second was diluted 10-fold to give dilute samples. Internal standards were added to both the calibration curve and the PBS incubation samples for analysis on LC MS/MS.
All 6 replicates of the neat samples were averaged to give one value for each, with the same calculation performed for the dilute sample values.

Data set [4] has as its target T1, serotonin 2A (5-HT2A) receptor (Mus musculus, UniProt P35363).
T1 construct: tissue Charles River UK; host or cells: whole living male C57BL/6J mice (in vivo, oral gavage)
The data set is described as follows: Head twitch response (HTR) in mice. Type of data set: in vivo, male C57BL/6J mice. The following applies: oral gavage 0.3 mg/kg.

The nature of data set [5]: Intake study: serum concentrations after oral ingestion by two volunteers. The conditions noted are these: for c(Psilocin): study 1. The procedure: Two volunteers (1 M, 1 F) ingested about 1 mg of each one of P1 and M1 (Study 1) and P2 and M2 (Study 2) in gelatin capsules (exact amounts in Tables 3 and 4). One blood sample was collected prior to ingestion of the substances and served as a zero control. After ingestion samples were collected for about 8 h with increasing time intervals between sample taking (exact protocol in Tables 4 and 5). […] The obtained sera were transferred in plastic tubes and NaF (ca. 30 mg) and ascorbic acid (ca. 5 mg) were added to increase analytes stability.
200 μL serum were spiked with an internal standard solution (10 μL) and ACN (600 μL) was added to precipitate soluble proteins. Before mixing thoroughly ammonium formate (10 M, 200 μL) was added separate the aqueous from the organic phase. After centrifugation (6 min, 4,000×g), 500 μL of the organic phase were transferred into another vial and evaporated to dryness at 40° C. under a gentle stream of nitrogen. Samples were reconstituted in 100 μL mobile phase (A/B, 90/10, v/v) and used for analysis. For quantification a blank sample and a six point calibration (0.5, 1.0, 2.0, 5.0, 10, 20 ng/mL) in calf serum were prepared as described above.
The HPLC-MS system consisted of a Nexera X2 UHPLC system composed of three LC-30AD pumps, a DGU-30A3 degasser, a SIL-30AC autosampler, a CTO-10AS column oven and a CBM-20A controller (Shimadzu, Duisburg, Germany) coupled to a QTRAP 6500plus triple quadrupole linear ion trap mass spectrometer equipped with a TurbolonSpray Interface (Sciex, Darmstadt, Germany). The MS was operated in positive electrospray ionization mode. Data acquisition was performed in scheduled multiple reaction monitoring mode (detection window: 60 s) using Analyst software (version 1.7). MS parameters (declustering potential, entrance potential, collision energy, and collision cell exit potential) were optimized for all substances to obtain the best possible signal intensities (summary of the MRM parameters are given in Table 5). Ion source temperature and ion source voltage were set to 550° C. and +5500 V, respectively. Dwell time was 20 ms for every MRM transition. Curtain gas (N2) pressure was 35 psi, ion source gas 1 and 2 (compressed air) pressure were 50 and 60 psi, respectively, and collision gas (N2) pressure was set to “high.” Chromatographic separation was performed on a Kinetex® biphenyl column (100×2.1 mm, 2.6 μm particle size, Phenomenex, Aschaffenburg, Germany) with a corresponding guard column (SecurityGuard™ ULTRA Cartridges UHPLC Biphenyl for 2.1 mm ID columns, Phenomenex, Aschaffenburg, Germany). The autosampler and the column oven temperature were set to 10° C. and 40° C., respectively. The injection volume was 10 μL.

Setting [6] is: serum, oral intake of about 1 mg prodrug, mean of 2 volunteers.

T1 sequence (P35363 whole entry): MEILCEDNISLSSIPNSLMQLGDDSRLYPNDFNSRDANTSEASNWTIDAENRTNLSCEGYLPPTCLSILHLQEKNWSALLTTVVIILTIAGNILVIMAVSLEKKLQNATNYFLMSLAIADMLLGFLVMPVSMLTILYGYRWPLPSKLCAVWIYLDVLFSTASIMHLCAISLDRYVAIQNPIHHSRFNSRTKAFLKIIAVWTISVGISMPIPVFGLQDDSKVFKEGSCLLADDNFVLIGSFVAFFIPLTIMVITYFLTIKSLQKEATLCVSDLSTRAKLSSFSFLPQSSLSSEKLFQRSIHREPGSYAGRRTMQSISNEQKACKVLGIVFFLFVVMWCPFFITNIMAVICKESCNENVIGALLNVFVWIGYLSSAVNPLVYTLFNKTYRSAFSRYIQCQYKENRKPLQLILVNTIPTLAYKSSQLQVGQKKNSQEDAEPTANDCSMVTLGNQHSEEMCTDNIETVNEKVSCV

In data set [1] (50 mM PB pH 7.4, target 200 μM, 24 hours shaking at room temperature, UPLC, test compound as hydrochloride), `NC(=O)N1c2ccccc2C=Cc2ccccc21` [Carbamazepine] showed a Detected concentration of 180 µM. This molecule yielded a solubility at 24 h in data set [1] (pH 7.4, aqueous buffer, kinetic from dmso stock) above 180 µM.

With `CN(C)CCCN1c2ccccc2Sc2ccc(Cl)cc21` [Chlorpromazine], in data set [2], the logD at 1 h came to 3.28.

In the case of `CCOC(=O)Oc1cccc2[nH]cc(CCN(C)CC)c12` [N-methyl-N-ethyltryptamine-4-yl ethylcarbonate], the Solubility in data set [3] was above 200 µM. The “Mean LogD” value in “Micro shake flask Log D” is listed as 1.01. In data set [4] (N = 8), the “Mean number of head twitches 15-30 mins” value was 3.5, the “Mean number of head twitches 30-45 mins” value was found to be 2.38 and the “Mean number of head twitches 45-60 mins” value stood at 0.38.

The molecule `CC(C)(C)NCC(O)COc1cccc2c1CC(O)C(O)C2` (stereo not shown) [Nadolol] returned a logD at 1 h in data set [2] of -1.33.

The molecule `COC(=O)C1=C(C)NC(C)=C(C(=O)OCCN(C)Cc2ccccc2)C1c1cccc([N+](=O)[O-])c1` (stereo not shown) [Nicardipine] returned a solubility at 5 min in data set [3] of 24.4 µM (≈ 11.7 µg/mL).

In data set [3], `CN(C)CCc1c[nH]c2cccc(O)c12` [Psilocin, psilocin] came in with a solubility at 5 min above 200 µM. Further, in “Micro shake flask Log D”, the logD at 2 h is 1.01.

Turning to `CCOC(=O)Oc1cccc2[nH]cc(CCN(C)C)c12` [Psilocin-4-yl-ethylcarbonate, psilocin-4-yl ethyl carbonate], the “Mean LogD” value in the data set “Micro shake flask Log D” is reported as 1.22. The “Parent prodrug itself in serum (not detected, LOD)” value in data set [5] (serum after oral ingestion of about 1 mg) is below 0.05 ng/mL. For the same molecule, the Cmax of psilocin in data set [5] (setting [6]) was 1.1 ± 0.5 ng/mL. Further, the Tmax of psilocin in data set [5] (setting [6]) is 0.933 ± 0.217 h. In addition, in data set [5] (setting [6]), the “elimination constant kel of psilocin” value was 0.0039 min⁻¹. The “elimination half life t1/2 of psilocin” value in data set [5] (setting [6]) amounted to 3.18 h. Moreover, the “c(Psilocin)” value in data set [5] (serum, test person A, oral P1 1.03 mg salt, 15 min, below LOQ, extrapolated) is listed as 0.15* ng/mL; in data set [5] (serum, test person A, oral P1 1.03 mg salt, 21 min), 0.34 ng/mL; in data set [5] (serum, test person A, oral P1 1.03 mg salt, 31 min), 0.51 ng/mL; in data set [5] (serum, test person A, oral P1 1.03 mg salt, 49 min), 0.82 ng/mL; in data set [5] (serum, test person A, oral P1 1.03 mg salt, 65 min) it was 1.45 ng/mL; in data set [5] (serum, test person A, oral P1 1.03 mg salt, 87 min), 1.02 ng/mL. Also, the “c(Psilocin)” value in data set [5] (serum, test person A, oral P1 1.03 mg salt, 120 min) is listed as 1.02 ng/mL; in data set [5] (serum, test person A, oral P1 1.03 mg salt, 155 min), 0.59 ng/mL; in data set [5] (serum, test person A, oral P1 1.03 mg salt, 165 min) it was 0.98 ng/mL; in data set [5] (serum, test person A, oral P1 1.03 mg salt, 240 min), 0.58 ng/mL; in data set [5] (serum, test person A, oral P1 1.03 mg salt, 338 min), 0.34 ng/mL; in data set [5] (serum, test person A, oral P1 1.03 mg salt, 371 min), 0.33 ng/mL. Moreover, the “c(Psilocin)” value in data set [5] (serum, test person A, oral P1 1.03 mg salt, 424 min, below LOQ, extrapolated) is reported as 0.29* ng/mL; in data set [5] (serum, test person A, oral P1 1.03 mg salt, 486 min, below LOQ, extrapolated), 0.26* ng/mL; in data set [5] (serum, test person B, oral P1 0.99 mg salt, 6 min, below LOQ, extrapolated), 0.22* ng/mL; in data set [5] (serum, test person B, oral P1 0.99 mg salt, 13 min, below LOQ, extrapolated), 0.25* ng/mL; in data set [5] (serum, test person B, oral P1 0.99 mg salt, 20 min), 0.38 ng/mL; in data set [5] (serum, test person B, oral P1 0.99 mg salt, 30 min), 0.60 ng/mL. The “c(Psilocin)” value was 0.76 ng/mL in data set [5] (serum, test person B, oral P1 0.99 mg salt, 47 min); 0.54 ng/mL in data set [5] (serum, test person B, oral P1 0.99 mg salt, 64 min); 0.60 ng/mL in data set [5] (serum, test person B, oral P1 0.99 mg salt, 83 min); 0.43 ng/mL in data set [5] (serum, test person B, oral P1 0.99 mg salt, 114 min); 0.37 ng/mL in data set [5] (serum, test person B, oral P1 0.99 mg salt, 165 min); 0.32 ng/mL in data set [5] (serum, test person B, oral P1 0.99 mg salt, 232 min). Further, the “c(Psilocin)” value in data set [5] (serum, test person B, oral P1 0.99 mg salt, 322 min, below LOQ, extrapolated) was 0.25* ng/mL; in data set [5] (serum, test person B, oral P1 0.99 mg salt, 369 min, below LOQ, extrapolated), 0.24* ng/mL; in data set [5] (serum, test person B, oral P1 0.99 mg salt, 432 min, below LOQ, extrapolated), 0.22* ng/mL. Further, the “Mean number of head twitches 0-15 mins” value in data set [4] (N = 8) came out at 3.5. Further, the “Mean number of head twitches 15-30 mins” value in data set [4] (N = 8) is 3.13. For the same molecule, the “Mean number of head twitches 30-45 mins” value in data set [4] (N = 8) is on record as 3.38. Further, in data set [4] (N = 8), the “Mean number of head twitches 45-60 mins” value was determined as 1.13. Also, in data set [4] (N = 8, 0.3 mg/kg), the “Mean number of head twitches Total 0-60 mins” value is listed as 10.84.

Turning to `CN(C)CCc1c[nH]c2cccc(OP(=O)(O)O)c12` [Psilocybin, psilocybin, reference compound], the solubility at 5 min in data set [3] is at least 100 µM. In addition, in the data set “Micro shake flask Log D”, the logD at 2 h amounted to 0.57.
